Molecular target: Mycobacterium thermoresistible (Mtr) LpqY (Mycolicibacterium thermoresistibile, UniProt G7CES0)
Type: binding
Conditions: single dose MST screen against LpqY

Sequence of Mycobacterium thermoresistible (Mtr) LpqY (G7CES0 29-471): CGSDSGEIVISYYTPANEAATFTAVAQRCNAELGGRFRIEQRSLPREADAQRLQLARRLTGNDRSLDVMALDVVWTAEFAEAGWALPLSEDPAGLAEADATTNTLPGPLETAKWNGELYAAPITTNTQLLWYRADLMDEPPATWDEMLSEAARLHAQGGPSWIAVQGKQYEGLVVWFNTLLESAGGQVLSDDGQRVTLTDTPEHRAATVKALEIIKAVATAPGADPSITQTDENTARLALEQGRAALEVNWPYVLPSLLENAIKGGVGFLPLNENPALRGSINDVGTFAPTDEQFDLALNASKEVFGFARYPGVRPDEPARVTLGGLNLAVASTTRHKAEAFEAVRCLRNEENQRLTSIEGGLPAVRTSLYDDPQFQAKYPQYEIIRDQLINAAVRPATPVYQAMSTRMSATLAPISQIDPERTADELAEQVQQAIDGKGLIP

Structure (SMILES) | Pathogen Box screen signal/noise ratio
CCCCc1ccc(NC(=O)Nc2ccc(O[C@H]3CCCC[C@@H]3N(C)c3ccccc3)c(F)c2)cc1 [MMV676063] | 0.0
CC(=O)N(CCN(C(=O)c1ccc(F)cc1)c1ccccc1)c1ccccc1 [MMV676064] | 0.35
Clc1cccc(CO[C@H]2CCc3ccccc3[C@@H]2n2ccnn2)c1 [MMV676159] | 1.0
c1ccc(Oc2ccc(-c3cc(CN4CCOCC4)[nH]n3)cc2)cc1 [MMV676161] | 1.1
O=C(Nc1ccccc1-c1nc2c(C(=O)O)cccc2o1)c1ccccc1 [MMV676162] | 0.9
Nc1ncnc2c1c(Cc1cccc3ccccc13)nn2CC1CCNCC1 [MMV676182] | 0.0
COC(=O)c1cccc2oc(-c3cccc(OC)c3NC(=O)c3cc(-c4ccccc4)on3)nc12 [MMV676186] | 0.1
CC(C)C(Oc1cccc2ccccc12)C(=O)O (stereo not shown) [MMV676191] | 0.9
O=C(c1ccc(F)cc1)N(CCNc1ccccc1)c1ccccc1 [MMV676204] | 0.644
CN1CCN(c2nccc3nc(-c4ccc(F)c(F)c4)[nH]c23)CC1 [MMV676260] | 0.635
C[C@H](C(N)=O)N1CCCC[C@H]1c1ccc(OCc2cccc(F)c2)cc1 [MMV676269] | 0.212
C[C@H](C(N)=O)N1CCCC[C@@H]1c1ccc(OCc2cccc(F)c2)cc1 [MMV676270] | 0.9
Cc1cnc(CCNC(=O)c2cc(-c3ccc(Cl)cc3)cs2)[nH]1 [MMV676350] | 1.3
Nc1ncc(Br)cc1-c1nc2cc(Cl)cnc2[nH]1 [MMV676358] | 4.8
Brc1c(-c2ccc3c(c2)OCO3)nc2ncccn12 [MMV676377] | 2.9
COc1cccc(OCC(=O)c2ccc(Br)cc2)c1 [MMV676379] | -0.0278
CC(=O)Nc1ccc(NC(=O)c2cc(-c3cc(Cl)ccc3O)[nH]n2)cc1 [MMV676380] | 1.2
Cn1ncc2c(N3CCOCC3)nc(NCCc3c[nH]c4ccccc34)nc21 [MMV676382] | 0.7
CCC(Sc1nc2ccccc2o1)C(=O)Nc1nccs1 (stereo not shown) [MMV676383] | 0.8
N#Cc1nc(-c2ccccc2F)oc1NCCc1ccccc1 [MMV676384] | 1.0
Cc1cccc(Cn2ccc(NC(=O)c3ccc4c(c3)OCO4)n2)c1 [MMV676386] | 2.9

Structure (SMILES) | Pathogen Box screen signal/noise ratio
COc1cccc(-n2nnnc2S(=O)(=O)Cc2ccccc2)c1 [MMV676388] | 0.952
O=C(c1[nH]nc2c1CCCC2)N1CCN(Cc2ccc3c(c2)OCO3)CC1 [MMV676389] | 1.7
O=C(Nc1cccnc1)c1c(O)c2cccc3c2n(c1=O)CC3 [MMV676395] | 2.1
CCS(=O)(=O)N(Cc1ccco1)Cc1cc2ccc(C)cc2nc1O [MMV676398] | -0.167
c1coc(CNc2nc(N3CCCCC3)nc3ccccc23)c1 [MMV676401] | 1.9
CC(C)n1ncc2c(C(=O)NCC(c3cccs3)N3CCOCC3)cc(-c3ccccc3)nc21 (stereo not shown) [MMV676406] | 2.6
O=C(COc1cccc(F)c1)Nc1nc(-c2ccccn2)cs1 [MMV676409] | 0.449
CC(Oc1ccccc1)C(=O)Nc1nc(-c2ccccn2)cs1 (stereo not shown) [MMV676411] | 0.0833
N#Cc1nc(-c2ccccc2)oc1S(=O)(=O)c1ccc(Cl)cc1 [MMV676412] | 0.6
Cc1ccc(NC(=O)CC2COc3ccccc3O2)cc1Cl (stereo not shown) [MMV676431] | 2.3
Cc1ccc2nc(Cl)c(CNCc3cccs3)cc2c1 [MMV676439] | 0.278
CC(C)c1ncc(-c2ccncc2)c([C@H]2CC[C@H](CNC(=O)c3cccnc3)CC2)n1 [MMV676442] | 0.8
O=C(NC1CCCCC1)N1CCN(Cc2ccc3c(c2)OCO3)CC1 [MMV676444] | 1.3
CCCn1c(CNc2ccccc2O)nc2ccccc21 [MMV676445] | 0.8
CCc1nc2ccccc2n1CC(O)COc1cc(C)ccc1Cl (stereo not shown) [MMV676449] | 1.2
CCOC(=O)c1cc(-c2csc(Nc3c(C)cc(C)cc3C)n2)on1 [MMV676461] | 2.4
NC(CC(=O)c1ccc(Cl)cc1Cl)C(Cl)(Cl)Cl (stereo not shown) [MMV676468] | 0.8
CCOc1ccc(OCC(=O)Nc2cc(C)cc(C)c2)cc1 [MMV676470] | 0.2
COc1cccc(OC)c1C(=O)Nc1ccc(Cl)c(-c2nc3ccccc3s2)c1 [MMV676472] | 0.348
Cc1cc(C)cc(COc2ccc3c(C)c(CCC(=O)O)c(=O)oc3c2C)c1 [MMV676476] | 2.7
CCc1c(C)nc(-n2nc(C)cc2NC(=O)c2ccccc2SC)[nH]c1=O [MMV676477] | 0.7

Structure (SMILES) | Pathogen Box screen signal/noise ratio
O=C(C1CCN(c2nnc(-n3cccc3)s2)CC1)N1CCC(Cc2ccccc2)CC1 [MMV676478] | 0.661
COC(=O)c1c(NC(=O)c2cc3ccccc3oc2=O)sc2c1CCN(Cc1ccccc1)C2 [MMV676480] | 1.3
O=C(Nc1nnc(S)s1)c1cc(Br)ccc1Cl [MMV676492] | 0.9
O=C(Nc1nnc(-c2ccc(Cl)s2)o1)c1ccc(Cl)s1 [MMV676501] | 0.556
Cc1ccc2oc(-c3cc(NC(=O)Cc4ccccc4)ccc3Cl)nc2c1 [MMV676509] | 3.4
O=C(Nc1nc(-c2ccccn2)cs1)c1cncn1-c1ccccc1 [MMV676512] | 0.561
O=C(c1cc2ccccc2o1)N1CCN(Cc2ccc3c(c2)OCO3)CC1 [MMV676520] | 1.1
COc1ccc(-c2cc(NC(=O)c3ccc(F)cc3Cl)ccc2OC)cc1 [MMV676526] | 0.556
Cc1cccc(NC(=O)c2cc(S(=O)(=O)N(C)c3ccc(F)cc3)ccc2Cl)n1 [MMV676528] | 1.1
COCC(C)NC(=O)CSc1ncnc2sc(-c3ccccc3)cc12 (stereo not shown) [MMV676536] | 1.9
COc1ccc(Nc2ccccc2NC(=O)c2ccc(O)nc2)cc1 [MMV676554] | 1.8
Cc1nnc(NCc2cccc(Cl)c2)c2ccccc12 [MMV676555] | 0.9
CC1=NN(c2nc3ccccc3s2)C(=O)C1Cc1cccc2ccccc12 (stereo not shown) [MMV676558] | 3.8
COc1ccc(-c2nc(-c3cccc(NC(=O)Cc4ccc(F)cc4)c3)no2)cc1OC [MMV676571] | 3.5
O=C(NC1=NCCS1)c1sc2cc(F)ccc2c1Cl [MMV676584] | 1.1
Nc1c2c(nc3sc4c(c13)CCCC4)CCCC2 [MMV676588] | 0.449
O=C(CCC1CCCCC1)Nc1cccc(-c2nnc(-c3ccco3)o2)c1 [MMV676589] | 0.6
CCCn1nnc(NC(=O)COc2ccc(C3CCCCC3)cc2)n1 [MMV676597] | 0.551
CC(C)(C)n1nc(Cc2cccc3ccccc23)c2c(N)ncnc21 [MMV676599] | 0.6
CO[C@@H](C(=O)N1Cc2[nH]nc(NC(=O)c3ccc(N4CCN(C)CC4)cc3)c2C1)c1ccccc1 [MMV676600] | 0.6
CC1COC2(CCN(c3nc(=O)c4cc(C(F)(F)F)cc([N+](=O)[O-])c4s3)CC2)O1 (stereo not shown) [MMV676603] | 1.8

Structure (SMILES) | Pathogen Box screen signal/noise ratio
Cc1ncc(-c2ccnc(Nc3ccc(S(C)(=O)=O)cc3)n2)n1C(C)C [MMV676604] | 4.2
C[C@]1(O)C[C@@H](c2nc(-c3ccc4ccc(-c5ccccc5)nc4c3)c3c(N)nccn32)C1 [MMV676605] | 0.9
O=C(c1ccc(NCCO)cc1)C1C[C@H]1c1ccc(Cl)cc1 (stereo partly shown) [MMV676877] | 0.0
CCn1cnc2c(Nc3cc(F)cc(F)c3)nc(C#N)nc21 [MMV676881] | 0.536
NC(=O)c1cc(-c2ccsc2)ccc1OCCOc1ccccc1 [MMV687138] | 1.8
CCCCS(=O)(=O)Nc1ccc2cnn(C)c2c1 [MMV687145] | 1.4
Cc1cc(C)c2cc(C(=O)NC3CCCCCCC3)[nH]c2c1 [MMV687146] | 1.1
COc1ccc(Cn2cnc3c(-c4ccco4)nc(Cl)nc32)cc1 [MMV687170] | 1.0
O=C(C1CCN(c2cc(-n3cccc3)ncn2)CC1)N1CCc2ccccc2C1 [MMV687172] | 0.431
CCc1ccc([C@@H]2C[C@H](C(F)(F)F)n3ncc(C(=O)NCc4ccc(OC)cc4)c3N2)cc1 [MMV687180] | 1.9
COc1ccc2nc(C)cc(OCC(=O)Nc3ccccc3OC)c2c1 [MMV687188] | 1.7
COc1ccc2nc(C)cc(OCC(=O)NCc3ccccc3)c2c1 [MMV687189] | 0.0536
CC(C)(C(=O)Nc1ccc(F)cc1)n1cc(-c2ccccc2F)cn1 [MMV687239] | 0.467
NC(=O)c1cc(Br)ccc1OCCOc1ccccc1 [MMV687243] | 0.4
CN1CCN(S(=O)(=O)c2ccc(-c3ccc4c(Nc5ccc6nn[nH]c6c5)ccnc4c3)cc2)CC1 [MMV687246] | 2.8
Nc1nc2ccc(-c3cncc(Oc4ccc(F)cc4)c3)cc2[nH]1 [MMV687248] | 0.2
Cn1c(=O)c2c(S(C)(=O)=O)snc2n(C)c1=O [MMV687251] | 0.0729
CCCCc1ccc(C(=O)Nc2nccc3ccccc23)nc1 [MMV687254] | 0.0729
CC(C)=CCC/C(C)=C\CNCCNC1C2CC3CC(C2)CC1C3 (stereo not shown) [MMV687273] | 1.3

— article PMC9579956 (RSC Medicinal Chemistry, 2022)
